Assays:
[1] = molecular target: 5-hydroxytryptamine receptor 2B (Homo sapiens, UniProt P41595)
[2] = molecular target: Melanin-concentrating hormone receptor 1 (Homo sapiens, UniProt Q99705)
[3] = molecular target: T1, 5-hydroxytryptamine receptor 1A (Homo sapiens, UniProt P08908)
T1 sequence (P08908 whole entry): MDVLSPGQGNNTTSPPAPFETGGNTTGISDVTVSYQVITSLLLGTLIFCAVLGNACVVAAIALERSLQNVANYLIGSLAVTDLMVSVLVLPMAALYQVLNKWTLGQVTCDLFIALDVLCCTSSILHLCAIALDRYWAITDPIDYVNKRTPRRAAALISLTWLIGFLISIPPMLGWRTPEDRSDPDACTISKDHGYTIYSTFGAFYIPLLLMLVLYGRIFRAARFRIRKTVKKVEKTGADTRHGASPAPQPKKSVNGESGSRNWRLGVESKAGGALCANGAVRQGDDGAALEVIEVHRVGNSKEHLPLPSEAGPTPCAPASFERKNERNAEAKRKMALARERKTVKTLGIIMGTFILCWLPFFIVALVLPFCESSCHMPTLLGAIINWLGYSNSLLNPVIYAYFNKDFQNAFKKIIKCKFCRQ

Sequence of 5-hydroxytryptamine receptor 2B (P41595 whole entry): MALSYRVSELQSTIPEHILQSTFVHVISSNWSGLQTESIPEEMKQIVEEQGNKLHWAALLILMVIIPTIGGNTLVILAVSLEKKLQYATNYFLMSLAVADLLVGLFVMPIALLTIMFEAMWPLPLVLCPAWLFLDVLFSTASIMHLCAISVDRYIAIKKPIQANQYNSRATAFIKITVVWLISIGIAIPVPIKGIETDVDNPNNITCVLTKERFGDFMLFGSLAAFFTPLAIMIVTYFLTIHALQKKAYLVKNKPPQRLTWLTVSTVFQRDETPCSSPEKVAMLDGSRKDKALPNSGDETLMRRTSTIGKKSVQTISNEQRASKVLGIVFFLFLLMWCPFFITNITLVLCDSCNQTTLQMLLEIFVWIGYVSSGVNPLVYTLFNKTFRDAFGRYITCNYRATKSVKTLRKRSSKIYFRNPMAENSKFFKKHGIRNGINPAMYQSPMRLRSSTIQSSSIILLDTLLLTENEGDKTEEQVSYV
Sequence of Melanin-concentrating hormone receptor 1 (Q99705 as listed by the source): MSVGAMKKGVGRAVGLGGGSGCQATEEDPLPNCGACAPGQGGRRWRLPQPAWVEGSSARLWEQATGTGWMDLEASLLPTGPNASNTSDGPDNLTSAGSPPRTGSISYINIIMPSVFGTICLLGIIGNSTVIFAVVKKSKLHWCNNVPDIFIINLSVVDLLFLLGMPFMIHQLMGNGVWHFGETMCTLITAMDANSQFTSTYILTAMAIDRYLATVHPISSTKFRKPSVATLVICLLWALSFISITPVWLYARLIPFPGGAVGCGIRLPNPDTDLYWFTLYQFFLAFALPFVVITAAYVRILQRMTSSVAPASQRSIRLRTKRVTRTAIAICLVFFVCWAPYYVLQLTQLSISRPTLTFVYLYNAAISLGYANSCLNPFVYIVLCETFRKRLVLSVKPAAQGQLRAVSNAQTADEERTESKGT

Row | Ki [1] | Ki [2] | Ki [3] | Structure (SMILES)
1 | 0.266 µM | 0.0157 µM | – | CN(C)c1nc(N[C@H]2CC[C@@H](NCCc3ccc(Br)cc3OC(F)(F)F)CC2)nc2ccccc12 [CAS_510732-84-0]
2 | 0.00966 µM | – | 0.0169 µM | CN(C)c1nc(N[C@H]2CC[C@@H](NC(=O)c3ccc(F)c(F)c3)CC2)nc2ccccc12 [ATC0175]

Source: BindingDB's records for doi:10.1124/jpet.104.081711 (Taisho Pharmaceutical, 2005)
